Assay results from patent US5744121A (priority 1996, dated 1998).
Where two headings read alike, the source gives them in different places.

Columns and labels:
5-HT1A receptor = assay: Blocking studies: regional brain uptake ratios in rats; type: in vivo; conditions: pretreated rats, 30 min post iv injection of tracer
Procedure: In order to further characterize the in vivo brain uptake of 1a in rats, blocking studies were carried out to determine changes of the ratios of regional brain uptake. […] Ratios for each region were calculated based on the % dose/gram of each region divided by the same in CB. […] (HP: hippocampus; CB: cerebellum; HY: hypothalamus; CX: cortex; ST: striatum).

[1] = test system: 5-HT1A receptor (rat hippocampal membranes); conditions: cited from earlier work
[2] = Stability of the radiolabelled product on storage; type: physicochemical; conditions: -20° C., at least four weeks, HPLC; 40320 min
[3] = Biodistribution in rats after iv injection; type: in vivo, Male Sprague-Dawley rats; conditions: average of 3 rats ± SD
Procedure: Male Sprague-Dawley rats (225-300 g), allowed free access to food and water, were used for an in vivo biodistribution study. While the rats were under ether anesthesia, 0.2 mL of a saline solution containing [^123 I]1a and 1b (8-10 μCi) was injected directly into the femoral vein, and rats were sacrificed at various time points postinjection by cardiac excision under ether anesthesia. The organs of interest were removed and weighed and the radioactivity was counted with a Packard […] automatic counter (Model 5000). The percentage dose per organ was calculated by a comparison of the tissue counts to suitably diluted aliquots of the injected material.

[4] = biological target: T1, 5-HT1A receptor (rat hippocampal homogenates) (Rattus norvegicus, UniProt P19327); assay: Inhibition of [^125 I]-8-OH-PIPAT binding to rat hippocampal homogenates; conditions: ligand [^125 I]-8-OH-PIPAT
T1 construct: in rat hippocampal membrane preparations; from tissue; host or cells: rat hippocampus (membrane preparations / tissue homogenates)
T1 sequence (P19327 1-422): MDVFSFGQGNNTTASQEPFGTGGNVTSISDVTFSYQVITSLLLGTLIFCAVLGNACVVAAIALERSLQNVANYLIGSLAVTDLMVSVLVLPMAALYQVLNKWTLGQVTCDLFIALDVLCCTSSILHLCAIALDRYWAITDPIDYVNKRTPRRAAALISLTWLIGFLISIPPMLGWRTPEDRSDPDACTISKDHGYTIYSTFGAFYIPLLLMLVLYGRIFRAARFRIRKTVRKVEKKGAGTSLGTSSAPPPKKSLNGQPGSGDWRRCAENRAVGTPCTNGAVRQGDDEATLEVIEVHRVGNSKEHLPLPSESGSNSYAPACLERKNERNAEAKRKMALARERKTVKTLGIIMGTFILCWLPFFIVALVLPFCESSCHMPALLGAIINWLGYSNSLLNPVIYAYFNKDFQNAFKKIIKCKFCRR
Excerpt: The 5-HT1A binding affinity of p-, m-, o- MPPI, p-fluoro- and p-nitro-MPP derivatives (1a-f) in rat hippocampal membrane preparations with [^123 ]

[5] = biological target: T1, 5-HT1A receptor (rat hippocampal homogenates); assay: Inhibition of [^125 I]-p-MPP binding to rat hippocampal homogenates
[6] = Regional brain distribution in rats after iv injection; type: in vivo, Male Sprague-Dawley rats; conditions: rat; for tissue uptake at 0.05 h: 3 min; for tissue uptake at 2 h: 120 min
Procedure: While the rats were under ether anesthesia, 0.2 mL of a saline solution containing [^123 I]1a and 1b (8-10 μCi) was injected directly into the femoral vein, and rats were sacrificed at various time points postinjection by cardiac excision under ether anesthesia. The organs of interest were removed and weighed and the radioactivity was counted with a Packard garnma automatic counter (Model 5000). The percentage dose per organ was calculated by a comparison of the tissue counts to suitably diluted aliquots of the injected material. Total activities of blood and muscle were calculated under the assumption that they were 7% and 40% of the total body weight, respectively.
By dissecting, weighing and counting samples from different brain regions (cortex, striatum, hippocampus, hypothalamus and cerebellum), the percentage dose/gram of the sample was calculated by comparing the sample counts with the count of the diluted initial dose.

[7] = biological target: T2, 5-HT1A receptor (rat hippocampus tissue homogenates) (Rattus norvegicus, UniProt P19327); assay: Saturation binding of [^125 I]p-MPPI to rat hippocampus tissue homogenates
T2 construct: in rat hippocampal membrane preparations; from tissue; host or cells: rat hippocampus (membrane preparations / tissue homogenates)
T2 sequence (P19327 1-422): T1 sequence (P19327 1-422)

[8] = ligand [^125 I]-p-MPP, rat hippocampal homogenates, read-out: Ki
[9] = cerebellum, iv, rats (Table IV), read-out: Regional distribution, cerebellum
[10] = cortex, iv, rats (Table IV), read-out: Regional distribution, cortex
[11] = hippocampus, iv, rats (Table IV), read-out: Regional distribution, hippocampus
[12] = hypothalamus, iv, rats (Table IV), read-out: Regional distribution, hypothalamus
[13] = striatum, iv, rats (Table IV), read-out: Regional distribution, striatum

## CCCN(CCC)C1CCc2cccc(O)c2C1 (racemic) [(± 8-OH-DPAT), 8-hydroxy-2-(N,N-di-n-propyl)aminotetralin, reference compound]
5-HT1A receptor
  specific uptake of [^123 I] or [^125 I]1a in the hippocampus after pretreatment: mark decrease

## COc1ccccc1N1CCN(C[C@@H](C(=O)NC(C)(C)C)c2ccccc2)CC1 [(5)-WAY 100135, N-tert-butyl-3-(4-(-2-methoxyphenyl)piperazin-1-yl)-2-phenylpropionamide]
[1]; 5-HT1A receptor
  selectivity: selective antagonist at both somatodendritic and postsynaptic receptor
[1]; rat hippocampal membranes
  IC50: 15 nM

## COc1ccccc1N1CCN(CCN(C(=O)c2cccc(I)c2)c2ccccn2)CC1 [Compound 1b, 4-(2'-methoxy)phenyl-1-[2"-(N-2"-pyridinyl)-m-iodobenzamido]ethyl piperazine]
[2]
  purity on storage: > 95%
[3]; 2 min
  Brain uptake: 0.76 % dose/organ
[4]
  Ki: 1.7 ± 0.1 nM
[5]; [8]
  Ki: 2.46 ± 0.14 nM
[6]; hippocampus, 60 minutes after iv injection, ^123 I labeled, read-out: Uptake in hippocampal tissue
  tissue uptake at 1 h: 0.013 %ID/g

## COc1ccccc1N1CCN(CCN(C(=O)c2ccc(F)cc2)c2ccccn2)CC1 [Compound 1d]
[4]
  Ki: 3.3 ± 0.8 nM

## COc1ccccc1N1CCN(CCN(C(=O)c2ccc(I)cc2)c2ncccn2)CC1 [Compound 1g, 4(2'-methoxy)phenyl-1-[2'-(N-2"-pyrimidinyl)-p-iodobenzamido] ethy piperazine]
[4]
  Ki: 6.08 ± 0.8 nM

## COc1cccc(OC)c1OCCNCC1COc2ccccc2O1 (stereo not shown) [WB 4101]
[5]; [8]
  Ki: 5 ± 0.5 nM

## COc1ccccc1N1CCN(CCN(C(=O)c2cccc([123I])c2)c2ccccn2)CC1 [[^123 I] 1b]
[3]; 2 min
  Blood uptake: 5.06 ± 0.32 % dose/organ
  Brain uptake: 0.76 ± 0.05 % dose/organ
  Heart uptake: 0.77 ± 0.08 % dose/organ
  Kidney uptake: 3.67 ± 0.22 % dose/organ
  Liver uptake: 25.72 ± 3.29 % dose/organ
  Lung uptake: 1.87 ± 0.08 % dose/organ
  Muscle uptake: 14.98 ± 1.16 % dose/organ
  Skin uptake: 10.16 ± 3.32 % dose/organ
  Spleen uptake: 0.68 ± 0.12 % dose/organ
  Thyroid uptake: 0.07 ± 0.02 % dose/organ
[3]; 30 min
  Blood uptake: 2.27 ± 0.24 % dose/organ
  Brain uptake: 0.07 ± 0.004 % dose/organ
  Heart uptake: 0.11 ± 0.008 % dose/organ
  Kidney uptake: 1.18 ± 0.11 % dose/organ
  Liver uptake: 8.04 ± 0.63 % dose/organ
  Lung uptake: 0.31 ± 0.004 % dose/organ
  Muscle uptake: 10.13 ± 4.90 % dose/organ
  Skin uptake: 13.71 ± 0.52 % dose/organ
  Spleen uptake: 0.09 ± 0.01 % dose/organ
  Thyroid uptake: 0.06 ± 0.02 % dose/organ
[3]; 60 min
  Blood uptake: 1.21 ± 0.08 % dose/organ
  Brain uptake: 0.02 ± 0.006 % dose/organ
  Heart uptake: 0.05 ± 0.005 % dose/organ
  Kidney uptake: 0.54 ± 0.007 % dose/organ
  Liver uptake: 4.58 ± 0.30 % dose/organ
  Lung uptake: 0.13 ± 0.02 % dose/organ
  Muscle uptake: 4.75 ± 1.76 % dose/organ
  Skin uptake: 5.85 ± 1.99 % dose/organ
  Spleen uptake: 0.04 ± 0.006 % dose/organ
  Thyroid uptake: 0.05 ± 0.02 % dose/organ
[3]; 120 min
  Blood uptake: 1.08 ± 0.13 % dose/organ
  Brain uptake: 0.016 ± 0.0005 % dose/organ
  Heart uptake: 0.03 ± 0.003 % dose/organ
  Kidney uptake: 0.36 ± 0.008 % dose/organ
  Liver uptake: 4.13 ± 0.44 % dose/organ
  Lung uptake: 0.10 ± 0.004 % dose/organ
  Muscle uptake: 5.56 ± 3.54 % dose/organ
  Skin uptake: 3.66 ± 0.68 % dose/organ
  Spleen uptake: 0.029 ± 0.002 % dose/organ
  Thyroid uptake: 0.11 ± 0.07 % dose/organ
[6]; [9]
  tissue uptake at 2 min: 0.47 ± 0.01 %ID/g
  tissue uptake at 0.05 h: 0.039 ± 0.003 %ID/g
  tissue uptake at 2 h: 0.008 ± 0.0004 %ID/g
[6]; cerebellum, 60 min, iv, rats (Table IV), read-out: Regional distribution, cerebellum
  tissue uptake at 1 h: 0.014 ± 0.004 %ID/g
[6]; [10]
  tissue uptake at 2 min: 0.5 ± 0.03 %ID/g
  tissue uptake at 0.05 h: 0.043 ± 0.002 %ID/g
  tissue uptake at 2 h: 0.008 ± 0.0008 %ID/g
[6]; cortex, 60 min, iv, rats (Table IV), read-out: Regional distribution, cortex
  tissue uptake at 1 h: 0.015 ± 0.005 %ID/g
[6]; [11]
  tissue uptake at 2 min: 0.54 ± 0.03 %ID/g
  tissue uptake at 0.05 h: 0.051 ± 0.005 %ID/g
  tissue uptake at 2 h: 0.006 ± 0.001 %ID/g
[6]; hippocampus, 60 min, iv, rats (Table IV), read-out: Regional distribution, hippocampus
  tissue uptake at 1 h: 0.013 ± 0.004 %ID/g
[6]; [12]
  tissue uptake at 2 min: 0.5 ± 0.04 %ID/g
  tissue uptake at 0.05 h: 0.042 ± 0.003 %ID/g
  tissue uptake at 2 h: 0.01 ± 0.002 %ID/g
[6]; hypothalamus, 60 min, iv, rats (Table IV), read-out: Regional distribution, hypothalamus
  tissue uptake at 1 h: 0.015 ± 0.005 %ID/g
[6]; [13]
  tissue uptake at 2 min: 0.51 ± 0.003 %ID/g
  tissue uptake at 0.05 h: 0.042 ± 0.004 %ID/g
  tissue uptake at 2 h: 0.006 ± 0.0008 %ID/g
[6]; striatum, 60 min, iv, rats (Table IV), read-out: Regional distribution, striatum
  tissue uptake at 1 h: 0.012 ± 0.003 %ID/g

## COc1ccccc1N1CCN(CCN(C(=O)c2ccc([125I])cc2)c2ccccn2)CC1 [[^125 I]-MPPI]
[7]; 37° C., 15 min, 50 mM Tris-HCl pH 7.4, 2 mM MgCl2, 10 μM 5-HT for nonspecific binding
  Bmax: 264 fmol/mg of protein
[7]; 37° C., 15 min, 50 mM Tris-HCl pH 7.4, 2 mM MgCl2, 10 μM 5-HT for nonspecific binding, read-out: Kd (FIG. 1)
  Kd: 0.36 nM
[7]; rat hippocampal homogenates, Kung, Unpublished data, read-out: Kd (Table I footnote)
  Kd: 0.3 nM

## O=C(c1ccc(F)cc1)C1CCN(CCn2c(=O)[nH]c3ccccc3c2=O)CC1 [hetanserin]
[5]
  Ki: 1970 ± 98 nM

## O=C(CCCN1CCC2(CC1)C(=O)NCN2c1ccccc1)c1ccc(F)cc1 [spiperone]
[5]; [8]
  Ki: 12.2 ± 2.2 nM
